Test system: MV-4-11 cells
Experiment: Gene expression microarray analysis (Affymetrix PrimeView) and GSEA
Type: cell-based, human
Parameters: RFU PODN (11730768_x_at) / Fold change /veh PODN (11730768_x_at) / RFU LINC00158 (11744669_a_at) / Fold change /veh LINC00158 (11744669_a_at) / RFU DUSP10 (11751237_a_at) / Fold change /veh DUSP10 (11751237_a_at) / RFU ID3 (11757404_x_at) / Fold change /veh ID3 (11757404_x_at) / RFU PLEKHG5 (11737974_s_at) / Fold change /veh PLEKHG5 (11737974_s_at) / RFU LRRC4B (11730491_at) / Fold change /veh LRRC4B (11730491_at) / RFU GIMAP4 (11747438_a_at) / Fold change /veh GIMAP4 (11747438_a_at) / RFU KRT8 (11758183_x_at) / Fold change /veh KRT8 (11758183_x_at) / RFU CNN1 (11734310_a_at) / Fold change /veh CNN1 (11734310_a_at) / RFU VPS37D (11726825_at) / Fold change /veh VPS37D (11726825_at) / RFU C10orf10 (11716522_x_at) / Fold change /veh C10orf10 (11716522_x_at) / RFU KIR2DL2 /// KIR2DL4 /// KIR2DL5A /// KIR2DL5B /// KIR2DS1 /// KIR2DS2 /// KIR2DS3 /// KIR2DS4 /// KIR3DL3 /// KIR3DL3 /// KIR3DS1 (11738374_at) / Fold change /veh KIR2DL2 /// KIR2DL4 /// KIR2DL5A /// KIR2DL5B /// KIR2DS1 /// KIR2DS2 /// KIR2DS3 /// KIR2DS4 /// KIR3DL3 /// KIR3DL3 /// KIR3DS1 (11738374_at) / RFU C1QL1 (11718748_at) / Fold change /veh C1QL1 (11718748_at) / RFU TMPRSS4 (11747572_a_at) / Fold change /veh TMPRSS4 (11747572_a_at) / RFU HAMP (11756126_x_at) / Fold change /veh HAMP (11756126_x_at) / RFU RNFT2 (11725882_a_at) / Fold change /veh RNFT2 (11725882_a_at) / RFU NR4A2 (11747474_a_at) / Fold change /veh NR4A2 (11747474_a_at) / RFU ABCC12 (11746883_a_at) / Fold change /veh ABCC12 (11746883_a_at) / RFU TMEM136 (11760407_x_at) / Fold change /veh TMEM136 (11760407_x_at) / RFU CLDN22 /// WWC2 (11732394_at) / Fold change /veh CLDN22 /// WWC2 (11732394_at) / RFU HLA-DPB1 (11760878_x_at) / Fold change /veh HLA-DPB1 (11760878_x_at) / RFU SPINT1 (11716480_a_at) / Fold change /veh SPINT1 (11716480_a_at) / RFU GAP43 (11754022_s_at) / Fold change /veh GAP43 (11754022_s_at) / RFU A4GNT (11735810_at) / Fold change /veh A4GNT (11735810_at) / RFU PRB3 (11715151_x_at) / Fold change /veh PRB3 (11715151_x_at) / RFU TUBB4B (11761932_at) / Fold change /veh TUBB4B (11761932_at) / RFU CAPN14 (11732068_a_at) / Fold change /veh CAPN14 (11732068_a_at) / RFU TMCC2 (11721928_a_at) / Fold change /veh TMCC2 (11721928_a_at) / RFU IRGQ (11745062_a_at) / Fold change /veh IRGQ (11745062_a_at) / RFU FAM174B (11720279_a_at) / Fold change /veh FAM174B (11720279_a_at) / RFU TMPRSS4 (11748680_a_at) / Fold change /veh TMPRSS4 (11748680_a_at) / RFU FAM212B (11763350_a_at) / Fold change /veh FAM212B (11763350_a_at) / RFU PLEKHG5 (11743358_a_at) / Fold change /veh PLEKHG5 (11743358_a_at) / RFU ZSCAN30 (11745921_a_at) / Fold change /veh ZSCAN30 (11745921_a_at) / RFU CMKLR1 (11741424_a_at) / Fold change /veh CMKLR1 (11741424_a_at) / RFU LOC101060620 /// MAPK8IP1 (11723275_at) / Fold change /veh LOC101060620 /// MAPK8IP1 (11723275_at) / RFU SPTSSB (11747773_x_at) / Fold change /veh SPTSSB (11747773_x_at) / RFU PRSS12 (11739890_at) / Fold change /veh PRSS12 (11739890_at) / RFU BIN1 (11741810_x_at) / Fold change /veh BIN1 (11741810_x_at) / RFU WNT11 (11732464_a_at) / Fold change /veh WNT11 (11732464_a_at) / RFU C10orf10 (11716521_a_at) / Fold change /veh C10orf10 (11716521_a_at) / RFU C5orf56 (11738089_at) / Fold change /veh C5orf56 (11738089_at) / RFU CYB561 (11721691_x_at) / Fold change /veh CYB561 (11721691_x_at) / RFU ANKRD19P (11752326_a_at) / Fold change /veh ANKRD19P (11752326_a_at) / RFU OR2T12 /// OR2T33 /// OR2T8 (11738714_s_at) / Fold change /veh OR2T12 /// OR2T33 /// OR2T8 (11738714_s_at) / RFU VCAN (11748164_a_at) / Fold change /veh VCAN (11748164_a_at) / RFU JSRP1 (11732532_at) / Fold change /veh JSRP1 (11732532_at) / RFU KRTAP10-11 (11738290_x_at) / Fold change /veh KRTAP10-11 (11738290_x_at) / RFU MYO3A (11730013_a_at) / Fold change /veh MYO3A (11730013_a_at) / RFU EBF3 (11725865_a_at) / Fold change /veh EBF3 (11725865_a_at) / RFU CAMK2N1 (11719241_x_at) / Fold change /veh CAMK2N1 (11719241_x_at) / RFU C5orf56 (11738088_a_at) / Fold change /veh C5orf56 (11738088_a_at) / RFU OLFML3 (11715873_a_at) / Fold change /veh OLFML3 (11715873_a_at) / RFU LOC100653217 /// NTM (11731650_a_at) / Fold change /veh LOC100653217 /// NTM (11731650_a_at) / RFU MAPK11 (11762145_a_at) / Fold change /veh MAPK11 (11762145_a_at) / RFU FIZ1 (11724087_x_at) / Fold change /veh FIZ1 (11724087_x_at) / RFU OASL (11726364_x_at) / Fold change /veh OASL (11726364_x_at) / RFU SOX15 (11748057_x_at) / Fold change /veh SOX15 (11748057_x_at) / RFU CD79A (11719716_a_at) / Fold change /veh CD79A (11719716_a_at) / RFU HIST1H1D (11736915_at) / Fold change /veh HIST1H1D (11736915_at) / RFU CASKIN2 (11723855_a_at) / Fold change /veh CASKIN2 (11723855_a_at) / RFU LOC730098 (11760151_x_at) / Fold change /veh LOC730098 (11760151_x_at) / RFU OR4N2 (11742367_at) / Fold change /veh OR4N2 (11742367_at) / RFU PRRT2 (11749266_a_at) / Fold change /veh PRRT2 (11749266_a_at) / RFU SNX32 (11753110_a_at) / Fold change /veh SNX32 (11753110_a_at) / RFU CDHR5 (11726645_a_at) / Fold change /veh CDHR5 (11726645_a_at) / RFU RCAN1 (11760418_a_at) / Fold change /veh RCAN1 (11760418_a_at) / RFU FAM167A (11723789_a_at) / Fold change /veh FAM167A (11723789_a_at) / RFU FAM26E (11764081_at) / Fold change /veh FAM26E (11764081_at) / RFU ISYNA1 (11749810_s_at) / Fold change /veh ISYNA1 (11749810_s_at) / RFU ACY1 (11761880_at) / Fold change /veh ACY1 (11761880_at) / RFU 11764098_at / Fold change /veh 11764098_at / RFU SAMD14 (11745864_x_at) / Fold change /veh SAMD14 (11745864_x_at) / RFU NPB (11741838_a_at) / Fold change /veh NPB (11741838_a_at) / RFU TMPRSS6 (11731388_a_at) / Fold change /veh TMPRSS6 (11731388_a_at) / RFU KRTAP10-2 (11738614_at) / Fold change /veh KRTAP10-2 (11738614_at) / RFU ARHGAP8 /// PRR5-ARHGAP8 (11727945_x_at) / Fold change /veh ARHGAP8 /// PRR5-ARHGAP8 (11727945_x_at) / RFU KRTAP5-7 /// NADSYN1 (11734609_at) / Fold change /veh KRTAP5-7 /// NADSYN1 (11734609_at) / RFU RASL12 (11751679_a_at) / Fold change /veh RASL12 (11751679_a_at) / RFU CDKN2B (11736163_a_at) / Fold change /veh CDKN2B (11736163_a_at) / RFU PRF1 (11729649_at) / Fold change /veh PRF1 (11729649_at) / RFU, ZNF638 /// ZNF638-IT1 / Fold change vs veh, ZNF638 /// ZNF638-IT1 / RFU, PANK3 / Fold change vs veh, PANK3 / RFU, SH3YL1 / Fold change vs veh, SH3YL1 / RFU, ZEB2 / Fold change vs veh, ZEB2 / RFU, NRIP1 / Fold change vs veh, NRIP1 / RFU, PTTG1IP / Fold change vs veh, PTTG1IP / RFU, CAPN2 / Fold change vs veh, CAPN2 / RFU, MED14 / Fold change vs veh, MED14 / RFU, SNORA58 / Fold change vs veh, SNORA58 / RFU, C1orf63 / Fold change vs veh, C1orf63 / RFU, LRRFIP1 / Fold change vs veh, LRRFIP1 / RFU, NDUFAF7 / Fold change vs veh, NDUFAF7 / RFU, SLC12A2 / Fold change vs veh, SLC12A2 / RFU, IBTK / Fold change vs veh, IBTK / RFU, ESF1 / Fold change vs veh, ESF1 / Fold change vs veh, TMEM50B / RFU, TAOK1 / Fold change vs veh, TAOK1 / RFU, ACBD3 / Fold change vs veh, ACBD3 / RFU, TMA16 / Fold change vs veh, TMA16 / RFU, RWDD3 / Fold change vs veh, RWDD3 / RFU, BCAT1 / Fold change vs veh, BCAT1 / RFU, EDEM3 / Fold change vs veh, EDEM3 / RFU, TMEM33 / Fold change vs veh, TMEM33 / RFU, WDR75 / Fold change vs veh, WDR75 / RFU, AHCTF1 / Fold change vs veh, AHCTF1 / RFU, TFRC / Fold change vs veh, TFRC / RFU, ZDHHC17 / Fold change vs veh, ZDHHC17 / RFU, NOM1 / Fold change vs veh, NOM1 / RFU, ARL8B / Fold change vs veh, ARL8B / RFU, ZBTB11 / Fold change vs veh, ZBTB11 / RFU, TAMM41 / Fold change vs veh, TAMM41 / RFU, KIAA1704 /// LOC100996395 / Fold change vs veh, KIAA1704 /// LOC100996395 / RFU, ING1 / Fold change vs veh, ING1 / RFU, TRMT61B / Fold change vs veh, TRMT61B / RFU, FUBP3 / Fold change vs veh, FUBP3 / RFU, TP53 / Fold change vs veh, TP53 / RFU, TNKS2 / Fold change vs veh, TNKS2 / RFU, ZFP14 / Fold change vs veh, ZFP14 / RFU, ACTR2 / Fold change vs veh, ACTR2 / RFU, PPP3R1 / Fold change vs veh, PPP3R1 / RFU, PIK3R1 / Fold change vs veh, PIK3R1 / RFU, HNRNPA1 / Fold change vs veh, HNRNPA1 / RFU, RNF170 / Fold change vs veh, RNF170 / RFU, ZNF28 / Fold change vs veh, ZNF28 / RFU, RNGTT / Fold change vs veh, RNGTT / RFU, OGT / Fold change vs veh, OGT / RFU, BRD1 / Fold change vs veh, BRD1 / RFU, MARS / Fold change vs veh, MARS / RFU, ZNF655 / Fold change vs veh, ZNF655 / RFU, FAHD1 / Fold change vs veh, FAHD1 / RFU, BDP1 / Fold change vs veh, BDP1 / RFU, LRRCC1 / Fold change vs veh, LRRCC1 / RFU, ARID1A / Fold change vs veh, ARID1A / RFU, ZNF146 / Fold change vs veh, ZNF146 / RFU, ZNF330 / Fold change vs veh, ZNF330 / RFU, GPN3 / Fold change vs veh, GPN3 / RFU, C9orf123 / Fold change vs veh, C9orf123 / RFU, N4BP2L2 / Fold change vs veh, N4BP2L2 / RFU, ARFIP1 / Fold change vs veh, ARFIP1 / RFU, FAM179B / Fold change vs veh, FAM179B / RFU, BCL10 / Fold change vs veh, BCL10 / RFU, UHRF1BP1L / Fold change vs veh, UHRF1BP1L / RFU, BET1 / Fold change vs veh, BET1 / RFU, CNOT2 / Fold change vs veh, CNOT2 / RFU, ZNF268 / Fold change vs veh, ZNF268 / Fold change vs veh, ZNF507 / RFU, DGCR2 / Fold change vs veh, DGCR2 / RFU, WDSUB1 / Fold change vs veh, WDSUB1 / Fold change vs veh, HSP90B1 /// MIR3652 / RFU, ADSS / Fold change vs veh, ADSS / RFU, GK / Fold change vs veh, GK / RFU, ZNF148 / Fold change vs veh, ZNF148 / RFU, TAF9 / Fold change vs veh, TAF9 / RFU, SLC1A5 / Fold change vs veh, SLC1A5 / RFU, SLMO2 / Fold change vs veh, SLMO2 / RFU, ABCC4 / Fold change vs veh, ABCC4 / RFU, LOC101060439 /// RAP1B / Fold change vs veh, LOC101060439 /// RAP1B / RFU, RFX7 / Fold change vs veh, RFX7 / RFU, GTPBP10 / Fold change vs veh, GTPBP10 / RFU, CNEP1R1 / Fold change vs veh, CNEP1R1 / RFU, BIVM-ERCC5 /// ERCC5 / Fold change vs veh, BIVM-ERCC5 /// ERCC5 / RFU, ILF3 / Fold change vs veh, ILF3 / RFU 11762660_at / Fold change /veh 11762660_at / RFU VCAN (11757783_s_at) / Fold change /veh VCAN (11757783_s_at) / RFU DDX43 (11728927_at) / Fold change /veh DDX43 (11728927_at) / RFU KRT8 (11758188_x_at) / Fold change /veh KRT8 (11758188_x_at) / RFU NKD1 (11759106_at) / Fold change /veh NKD1 (11759106_at) / RFU SRD5A1 (11742802_a_at) / Fold change /veh SRD5A1 (11742802_a_at) / RFU TPSAB1 /// TPSB2 (11721975_s_at) / Fold change /veh TPSAB1 /// TPSB2 (11721975_s_at) / RFU GSTM3 (11746129_a_at) / Fold change /veh GSTM3 (11746129_a_at) / RFU IL23R (11737362_x_at) / Fold change /veh IL23R (11737362_x_at) / RFU TMEM51 (11727254_a_at) / Fold change /veh TMEM51 (11727254_a_at) / RFU PIWIL2 (11732686_x_at) / Fold change /veh PIWIL2 (11732686_x_at) / RFU ORM1 (11744905_x_at) / Fold change /veh ORM1 (11744905_x_at) / RFU CCDC152 (11743942_at) / Fold change /veh CCDC152 (11743942_at) / RFU ECM1 (11717891_a_at) / Fold change /veh ECM1 (11717891_a_at) / RFU IL23R (11748794_a_at) / Fold change /veh IL23R (11748794_a_at) / RFU TNFAIP8L3 (11732012_x_at) / Fold change /veh TNFAIP8L3 (11732012_x_at) / RFU MBOAT4 (11741988_at) / Fold change /veh MBOAT4 (11741988_at) / RFU 11764193_at / Fold change /veh 11764193_at / RFU TMEM53 (11763286_at) / Fold change /veh TMEM53 (11763286_at) / RFU MAGEB2 (11727129_at) / Fold change /veh MAGEB2 (11727129_at) / RFU TMEM200A (11744735_a_at) / Fold change /veh TMEM200A (11744735_a_at) / RFU CCDC152 (11751479_a_at) / Fold change /veh CCDC152 (11751479_a_at) / RFU FAM211A (11726209_a_at) / Fold change /veh FAM211A (11726209_a_at) / RFU RGS16 (11746705_a_at) / Fold change /veh RGS16 (11746705_a_at) / RFU VCAN (11755009_s_at) / Fold change /veh VCAN (11755009_s_at) / RFU RHOB (11743442_s_at) / Fold change /veh RHOB (11743442_s_at) / RFU RGS16 (11720943_a_at) / Fold change /veh RGS16 (11720943_a_at) / RFU RGS16 (11720944_at) / Fold change /veh RGS16 (11720944_at) / RFU, VPS4B / Fold change vs veh, VPS4B / RFU, CREB1 / Fold change vs veh, CREB1 / RFU, DNAJC13 / Fold change vs veh, DNAJC13 / RFU, GNAQ / Fold change vs veh, GNAQ / RFU, CDK5R1 / Fold change vs veh, CDK5R1 / RFU, ZRANB3 / Fold change vs veh, ZRANB3 / RFU, CUL4A / Fold change vs veh, CUL4A / RFU, CCNY / Fold change vs veh, CCNY / RFU, UFL1 / Fold change vs veh, UFL1 / RFU, COG3 / Fold change vs veh, COG3 / RFU, DIAPH2 / Fold change vs veh, DIAPH2 / RFU, SKA2 / Fold change vs veh, SKA2 / RFU, AFF3 / Fold change vs veh, AFF3 / RFU, LMF1 / Fold change vs veh, LMF1 / RFU, IPO11 / Fold change vs veh, IPO11 / RFU, DFFB / Fold change vs veh, DFFB / RFU, FOXP1 / Fold change vs veh, FOXP1 / RFU, CARD8 / Fold change vs veh, CARD8 / RFU, STRN3 / Fold change vs veh, STRN3 / RFU, ADK / Fold change vs veh, ADK / RFU, RASSF2 / Fold change vs veh, RASSF2 / RFU, WIPF1 / Fold change vs veh, WIPF1 / RFU, LARP1B / Fold change vs veh, LARP1B / RFU, RASA1 / Fold change vs veh, RASA1 / RFU, RB1 / Fold change vs veh, RB1 / RFU, PPFIA1 / Fold change vs veh, PPFIA1 / RFU, MAT2A / Fold change vs veh, MAT2A / RFU, CCT5 / Fold change vs veh, CCT5 / RFU, WDR92 / Fold change vs veh, WDR92 / RFU, CUX1 / Fold change vs veh, CUX1 / RFU, TTC7A / Fold change vs veh, TTC7A / RFU, TMEM135 / Fold change vs veh, TMEM135 / RFU, DEPTOR / Fold change vs veh, DEPTOR / RFU, CPM / Fold change vs veh, CPM / RFU, DNAJB6 / Fold change vs veh, DNAJB6 / RFU, CACNA2D3 / Fold change vs veh, CACNA2D3 / RFU, DTX4 / Fold change vs veh, DTX4 / RFU, TFCP2 / Fold change vs veh, TFCP2 / RFU, GMCL1 /// GMCL1P1 / Fold change vs veh, GMCL1 /// GMCL1P1 / RFU, AEBP2 / Fold change vs veh, AEBP2 / RFU, SNHG1 /// SNORD22 /// SNORD25 /// SNORD26 /// SNORD27 /// SNORD28 /// SNORD29 /// SNORD31 / Fold change vs veh, SNHG1 /// SNORD22 /// SNORD25 /// SNORD26 /// SNORD27 /// SNORD28 /// SNORD29 /// SNORD31 / Fold change (Aza/veh), C12orf56 (ProbeSet 11735607_a_at) / Fold change (ACY-1035/veh), C12orf56 (ProbeSet 11735607_a_at) / Fold change (Aza/veh), FGFR1OP (ProbeSet 11751329_s_at) / Fold change (ACY-1035/veh), FGFR1OP (ProbeSet 11751329_s_at) / Fold change (Aza/veh), VPS36 (ProbeSet 11739960_a_at) / Fold change (ACY-1035/veh), VPS36 (ProbeSet 11739960_a_at) / RFU SYPL1 (11715823_x_at) / Fold change /veh SYPL1 (11715823_x_at) / RFU IGFBP7 (11715501_s_at) / Fold change /veh IGFBP7 (11715501_s_at) / RFU REEP3 (11722064_at) / Fold change /veh REEP3 (11722064_at) / RFU IGLL1 (11728026_x_at) / Fold change /veh IGLL1 (11728026_x_at): dose or concentration left out as unconfirmed
Details: ProbeSet 11754607_s_at; LIST B

For `Nc1ccc(-c2cccs2)cc1NC(=O)c1ccc2c(c1)cc(C1CC1)n2CCN1CCOCC1` [ACY-1035], the “Fold change vs veh, HSP90B1 /// MIR3652” value was 0.87.
